Earlier results in US7745108B2, “Method for identifying terpene synthase” (The Regents of the University of California, priority 2003, dated 2010).

How the values were obtained:
monoterpene synthases = conditions: all twelve monoterpene synthases tested
taxadiene synthase = target: T1, taxadiene synthase (Taxus brevifolia, UniProt Q41594)
T1 sequence (Q41594 61-862 limits assumed): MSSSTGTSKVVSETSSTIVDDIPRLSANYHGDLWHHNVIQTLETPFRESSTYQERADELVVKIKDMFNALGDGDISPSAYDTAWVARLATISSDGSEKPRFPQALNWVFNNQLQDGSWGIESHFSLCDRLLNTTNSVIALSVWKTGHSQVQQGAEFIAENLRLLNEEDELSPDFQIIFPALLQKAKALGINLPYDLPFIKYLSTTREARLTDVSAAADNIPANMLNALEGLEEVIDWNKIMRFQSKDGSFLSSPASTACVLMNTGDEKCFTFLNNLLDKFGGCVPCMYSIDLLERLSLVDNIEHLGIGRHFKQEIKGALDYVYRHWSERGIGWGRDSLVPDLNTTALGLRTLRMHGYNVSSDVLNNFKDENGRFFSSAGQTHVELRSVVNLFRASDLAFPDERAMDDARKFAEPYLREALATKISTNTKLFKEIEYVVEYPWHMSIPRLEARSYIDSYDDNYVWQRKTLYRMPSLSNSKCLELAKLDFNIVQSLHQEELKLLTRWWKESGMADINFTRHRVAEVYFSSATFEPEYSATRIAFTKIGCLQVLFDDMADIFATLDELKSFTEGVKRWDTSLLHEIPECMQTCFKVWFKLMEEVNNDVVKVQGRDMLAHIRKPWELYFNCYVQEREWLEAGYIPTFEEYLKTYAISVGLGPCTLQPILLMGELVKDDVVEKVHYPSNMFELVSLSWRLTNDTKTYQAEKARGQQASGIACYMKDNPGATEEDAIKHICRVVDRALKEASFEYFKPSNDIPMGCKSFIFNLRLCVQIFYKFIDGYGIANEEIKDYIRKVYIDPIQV

| Substance | sensitivity of monoterpene synthases to the inhibitor (monoterpene synthases) | covalent modification and inhibition of taxadiene synthase (taxadiene synthase) |
| --- | --- | --- |
| cyclopropylidene geranyl diphosphate [CP-GPP] | sensitive | – |
| cyclopropylidene geranylgeranyl diphosphate [CP-GGPP] | – | unsuccessful in covalently modifying and inhibiting |
